Article PMC10317891, “Fibroblast activation protein targeted radiotherapy induces an immunogenic tumor microenvironment and enhances the efficacy of PD-1 immune checkpoint inhibition” (European Journal of Nuclear Medicine and Molecular Imaging, 2023)
Numbered stars: 1 amine (or outer) side, 2 acyl side, 3 side chain; on linkers, the order of the positions; unused ones are H or OH. Bridge positions count the residues as written; N and C are the ends. Peptide text beside a SMILES is read from it. * marks the point of attachment. X1 = O=C(O)CN1CCN(CC(=O)O)CCN(CC(=O)N2CCN(Cc3cc(C[*:1])cc(C[*:2])c3)CC2)CCN(CC(=O)O)CC1; Hexanoyl = CCCCCC(=O)*

Assay: Plasma stability
Format: in vitro ADME
Conditions: 10 µM, 37°C, UHPLC-QTOF MS with internal standard
Description: FAP-2287 was incubated in 50 µL of plasma with 3.8% sodium citrate as anticoagulant at a concentration of 10 µM. After 1, 2, 4, and 24 hours incubation at 37°C a suitable internal standard was added. FAP-2287 with plasma proteins were precipitated using 250 µL of a precipitation agent consisting of 1% trifluoroacetic acid in acetonitrile. Precipitation was carried out at room temperature for 30 minutes. After centrifugation at 18,200 relative centrifugal force (rcf) for 5 minutes, 100 µL of the supernatant was mixed with 100 µL of 1% formic acid.
A nonincubated plasma sample spiked with 10 µM sample concentration was prepared in the same way and was used as the reference. A pure plasma sample was incubated for 24 hours as a blank sample. A further pure plasma sample was incubated for 24 hours, processed as described above and spiked directly before analysis to determine the recovery. The samples were analyzed using an Agilent 1290 UHPLC system coupled to an Agilent 6530 QTOF mass spectrometer.
For the quantitative data analysis, the Agilent Quantitative Analysis B.08.00 software (RRID:SCR_015040) was used. The ion currents of the triply charged proton adducts of the compounds were extracted with a mass window of ±50 parts per million and the chromatographic peak was integrated. The concentration of the compound was determined by external matrix calibration with internal standard using 6 calibration samples (1, 2.5, 5, 7.5, 10, and 12.5 µM). A quadratic regression was performed. Carryover was determined by analyzing the blank sample directly after the highest calibration sample and comparing the determined peak areas. Recovery was calculated as the ratio between the spiked concentration of the recovery sample and the concentration calculated from the peak area of this sample.

Which results are given for `CCCCCC(=O)N[C@H]1CSCc2cc(cc(CN3CCN(C(=O)CN4CCN(CC(=O)O)CCN(CC(=O)O)CCN(CC(=O)O)CC4)CC3)c2)CSC[C@@H](C(=O)N[C@@H](CC(=O)O)C(N)=O)NC(=O)[C@H](Cc2ccccc2)NC(=O)[C@H](CCC(N)=O)NC(=O)[C@H]([C@@H](C)O)NC(=O)[C@@H]2CCCN2C(=O)[C@@H]2CCCN2C1=O` [natLu-FAP-2287, metal not drawn] (Hexanoyl-CPPTQFCD-NH2; linker 1-7 via X1; N-terminus and C-terminus assumed)?
Plasma Stability (24 h) Human Plasma (human plasma with 3.8% sodium citrate): > 80%; Plasma Stability (24 h) Mouse Plasma (mouse plasma with 3.8% sodium citrate): > 80%
